Results reported in patent US9828360B2 (Array BioPharma Inc., priority 2012, dated 2017).

Assays:
Experiment in all cases: KinaseProfiler off-target kinase profiling
Assay type in all cases: biochemical
Details in all cases: 10 μM, ATP near Km
[1] = molecular target: T1, AKT2 (Homo sapiens, UniProt P31751)
T1 construct: purchased Millipore, Inc. (KinaseProfiler service)
In short: (§1)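 POC (mean, n=2) at 10 μM inhibitor; ATP near Km of each enzyme.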

[2] = molecular target: T2, BTK (Homo sapiens, UniProt Q06187)
T2 construct: purchased Millipore, Inc. (KinaseProfiler service)
In short: as §1

[3] = molecular target: T3, Bmx (Homo sapiens, UniProt P51813)
T3 construct: purchased Millipore, Inc. (KinaseProfiler service)
In short: as §1

[4] = molecular target: T4, BrSK2 (Homo sapiens, UniProt Q8IWQ3)
T4 construct: purchased Millipore, Inc. (KinaseProfiler service)
In short: as §1

[5] = molecular target: T5, CAMK4 (Homo sapiens, UniProt Q16566)
T5 construct: purchased Millipore, Inc. (KinaseProfiler service)
In short: as §1

[6] = molecular target: T6, CDK1/cyclinB (Homo sapiens, UniProt P06493)
T6 construct: purchased Millipore, Inc. (KinaseProfiler service)
In short: as §1

[7] = molecular target: T7, CDK2/cyclinA (Homo sapiens, UniProt P24941)
T7 construct: purchased Millipore, Inc. (KinaseProfiler service)
In short: as §1

[8] = molecular target: T8, CDK5/p25 (Homo sapiens, UniProt Q00535)
T8 construct: purchased Millipore, Inc. (KinaseProfiler service)
In short: as §1

[9] = molecular target: T9, CDK5/p35 (Homo sapiens, UniProt Q00535)
T9 construct: purchased Millipore, Inc. (KinaseProfiler service)
In short: as §1

[10] = tested on: CK1_y
In short: as §1

[11] = molecular target: T10, CK1delta (Homo sapiens, UniProt P48730)
T10 construct: purchased Millipore, Inc. (KinaseProfiler service)
In short: as §1

[12] = molecular target: T11, EGFR (Homo sapiens, UniProt P00533)
T11 construct: purchased Millipore, Inc. (KinaseProfiler service)
In short: as §1

[13] = molecular target: T12, EphA5 (Homo sapiens, UniProt P54756)
T12 construct: purchased Millipore, Inc. (KinaseProfiler service)
In short: as §1

[14] = molecular target: T13, FGFR2 (Homo sapiens, UniProt P21802)
T13 construct: purchased Millipore, Inc. (KinaseProfiler service)
In short: as §1

[15] = molecular target: T14, Fer (Homo sapiens, UniProt P16591)
T14 construct: purchased Millipore, Inc. (KinaseProfiler service)
T14 sequence (P16591 whole entry): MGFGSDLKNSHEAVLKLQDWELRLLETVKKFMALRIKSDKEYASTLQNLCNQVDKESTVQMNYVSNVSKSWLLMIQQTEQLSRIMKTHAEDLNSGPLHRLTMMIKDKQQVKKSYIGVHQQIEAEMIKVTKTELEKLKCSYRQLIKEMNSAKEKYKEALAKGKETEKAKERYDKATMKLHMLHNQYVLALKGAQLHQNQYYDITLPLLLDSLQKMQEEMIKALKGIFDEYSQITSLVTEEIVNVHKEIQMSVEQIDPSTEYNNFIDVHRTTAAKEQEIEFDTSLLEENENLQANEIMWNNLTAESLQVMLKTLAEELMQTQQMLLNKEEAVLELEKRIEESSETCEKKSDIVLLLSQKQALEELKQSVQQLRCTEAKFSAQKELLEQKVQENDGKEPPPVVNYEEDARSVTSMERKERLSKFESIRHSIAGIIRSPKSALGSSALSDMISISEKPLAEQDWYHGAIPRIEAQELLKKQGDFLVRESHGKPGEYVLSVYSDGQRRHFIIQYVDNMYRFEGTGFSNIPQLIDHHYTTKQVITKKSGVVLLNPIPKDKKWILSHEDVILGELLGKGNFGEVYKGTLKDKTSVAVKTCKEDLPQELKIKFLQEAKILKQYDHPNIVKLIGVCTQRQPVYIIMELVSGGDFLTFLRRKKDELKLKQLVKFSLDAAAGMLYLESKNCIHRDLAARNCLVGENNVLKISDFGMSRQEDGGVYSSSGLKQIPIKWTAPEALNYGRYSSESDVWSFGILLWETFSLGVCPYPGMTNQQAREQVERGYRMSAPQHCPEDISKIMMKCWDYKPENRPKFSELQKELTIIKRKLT
In short: as §1

[16] = molecular target: T15, GSK3beta (Homo sapiens, UniProt P49841)
T15 construct: purchased Millipore, Inc. (KinaseProfiler service)
In short: as §1

[17] = molecular target: T16, HIPK2 (Homo sapiens, UniProt Q9H2X6)
T16 construct: purchased Millipore, Inc. (KinaseProfiler service)
In short: as §1

[18] = molecular target: T17, ITK (Homo sapiens, UniProt Q08881)
T17 construct: purchased Millipore, Inc. (KinaseProfiler service)
In short: as §1

[19] = molecular target: T18, KDR (Homo sapiens, UniProt P35968)
T18 construct: purchased Millipore, Inc. (KinaseProfiler service)
In short: as §1

[20] = molecular target: T19, LKB1 (Homo sapiens, UniProt Q15831)
T19 construct: purchased Millipore, Inc. (KinaseProfiler service)
In short: as §1

[21] = molecular target: T20, MAP3K5 (Homo sapiens, UniProt Q99683)
T20 construct: purchased Millipore, Inc. (KinaseProfiler service)
T20 sequence (Q99683 whole entry): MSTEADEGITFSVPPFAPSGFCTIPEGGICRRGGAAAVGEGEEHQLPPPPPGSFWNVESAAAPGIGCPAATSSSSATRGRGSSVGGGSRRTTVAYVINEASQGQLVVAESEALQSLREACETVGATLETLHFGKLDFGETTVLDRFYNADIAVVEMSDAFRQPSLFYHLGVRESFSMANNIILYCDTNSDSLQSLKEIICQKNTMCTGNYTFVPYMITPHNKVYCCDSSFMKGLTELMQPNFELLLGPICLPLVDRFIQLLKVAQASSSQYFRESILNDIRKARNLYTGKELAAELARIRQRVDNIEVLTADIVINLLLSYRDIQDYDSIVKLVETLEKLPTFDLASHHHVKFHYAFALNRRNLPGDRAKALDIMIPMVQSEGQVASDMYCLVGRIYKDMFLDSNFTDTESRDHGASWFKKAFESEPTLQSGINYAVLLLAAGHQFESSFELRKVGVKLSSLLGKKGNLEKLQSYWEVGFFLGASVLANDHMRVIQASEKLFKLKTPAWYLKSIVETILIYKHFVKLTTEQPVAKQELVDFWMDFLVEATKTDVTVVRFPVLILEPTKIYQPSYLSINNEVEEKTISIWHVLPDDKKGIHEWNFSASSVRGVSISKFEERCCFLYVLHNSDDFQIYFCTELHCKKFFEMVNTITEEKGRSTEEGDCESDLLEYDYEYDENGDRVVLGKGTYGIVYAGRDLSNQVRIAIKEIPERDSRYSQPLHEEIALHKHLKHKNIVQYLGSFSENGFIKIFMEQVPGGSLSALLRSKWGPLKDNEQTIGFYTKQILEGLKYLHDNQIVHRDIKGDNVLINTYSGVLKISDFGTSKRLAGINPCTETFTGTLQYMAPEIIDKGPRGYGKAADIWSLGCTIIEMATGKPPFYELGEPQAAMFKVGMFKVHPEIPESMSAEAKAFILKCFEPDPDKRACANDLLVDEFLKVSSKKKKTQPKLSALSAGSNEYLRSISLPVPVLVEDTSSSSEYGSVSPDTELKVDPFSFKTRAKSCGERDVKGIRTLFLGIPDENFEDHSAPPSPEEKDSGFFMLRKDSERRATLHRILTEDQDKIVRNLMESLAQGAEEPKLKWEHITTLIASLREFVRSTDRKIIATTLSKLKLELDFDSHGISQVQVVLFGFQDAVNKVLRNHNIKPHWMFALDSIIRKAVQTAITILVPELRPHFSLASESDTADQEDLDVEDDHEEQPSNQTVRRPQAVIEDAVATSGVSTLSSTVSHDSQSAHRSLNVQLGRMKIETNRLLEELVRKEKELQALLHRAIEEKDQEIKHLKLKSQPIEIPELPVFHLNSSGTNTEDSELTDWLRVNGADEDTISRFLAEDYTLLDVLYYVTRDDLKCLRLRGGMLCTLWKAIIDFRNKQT
In short: as §1

[22] = molecular target: T21, MINK (Homo sapiens, UniProt Q8N4C8)
T21 construct: purchased Millipore, Inc. (KinaseProfiler service)
In short: as §1

[23] = molecular target: T22, MKK7beta (Homo sapiens, UniProt O14733)
T22 construct: purchased Millipore, Inc. (KinaseProfiler service)
In short: as §1

[24] = molecular target: T23, MLK1 (Homo sapiens, UniProt P80192)
T23 construct: purchased Millipore, Inc. (KinaseProfiler service)
In short: as §1

[25] = molecular target: T24, MRCKalpha (Homo sapiens, UniProt Q5VT25)
T24 construct: purchased Millipore, Inc. (KinaseProfiler service)
In short: as §1

[26] = molecular target: T25, Mer (Homo sapiens, UniProt Q12866)
T25 construct: purchased Millipore, Inc. (KinaseProfiler service)
In short: as §1

[27] = molecular target: T26, NEK6 (Homo sapiens, UniProt Q9HC98)
T26 construct: purchased Millipore, Inc. (KinaseProfiler service)
In short: as §1

[28] = molecular target: T27, PAK6 (Homo sapiens, UniProt Q9NQU5)
T27 construct: purchased Millipore, Inc. (KinaseProfiler service)
T27 sequence (Q9NQU5 whole entry): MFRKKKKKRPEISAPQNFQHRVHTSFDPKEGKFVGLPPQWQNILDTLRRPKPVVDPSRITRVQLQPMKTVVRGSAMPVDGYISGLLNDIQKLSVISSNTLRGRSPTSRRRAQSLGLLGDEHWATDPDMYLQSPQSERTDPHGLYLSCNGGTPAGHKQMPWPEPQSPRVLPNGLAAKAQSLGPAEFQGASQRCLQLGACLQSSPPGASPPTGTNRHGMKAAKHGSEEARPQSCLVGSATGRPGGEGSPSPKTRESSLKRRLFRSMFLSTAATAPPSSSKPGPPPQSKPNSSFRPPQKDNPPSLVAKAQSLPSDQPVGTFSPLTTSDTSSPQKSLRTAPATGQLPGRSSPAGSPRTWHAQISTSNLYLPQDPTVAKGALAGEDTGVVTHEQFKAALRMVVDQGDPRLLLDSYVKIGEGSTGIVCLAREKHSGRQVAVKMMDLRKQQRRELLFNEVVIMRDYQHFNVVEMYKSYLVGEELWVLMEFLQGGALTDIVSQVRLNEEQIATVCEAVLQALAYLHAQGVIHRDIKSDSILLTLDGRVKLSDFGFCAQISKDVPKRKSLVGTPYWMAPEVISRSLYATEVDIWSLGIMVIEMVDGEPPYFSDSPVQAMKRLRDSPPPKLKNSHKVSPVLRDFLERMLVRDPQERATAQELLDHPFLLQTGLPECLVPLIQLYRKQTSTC
In short: as §1

[29] = molecular target: T28, PDGFRalpha (Homo sapiens, UniProt P16234)
T28 construct: purchased Millipore, Inc. (KinaseProfiler service)
In short: as §1

[30] = molecular target: T29, PDGFRbeta (Homo sapiens, UniProt P09619)
T29 construct: purchased Millipore, Inc. (KinaseProfiler service)
T29 sequence (P09619 33-1106): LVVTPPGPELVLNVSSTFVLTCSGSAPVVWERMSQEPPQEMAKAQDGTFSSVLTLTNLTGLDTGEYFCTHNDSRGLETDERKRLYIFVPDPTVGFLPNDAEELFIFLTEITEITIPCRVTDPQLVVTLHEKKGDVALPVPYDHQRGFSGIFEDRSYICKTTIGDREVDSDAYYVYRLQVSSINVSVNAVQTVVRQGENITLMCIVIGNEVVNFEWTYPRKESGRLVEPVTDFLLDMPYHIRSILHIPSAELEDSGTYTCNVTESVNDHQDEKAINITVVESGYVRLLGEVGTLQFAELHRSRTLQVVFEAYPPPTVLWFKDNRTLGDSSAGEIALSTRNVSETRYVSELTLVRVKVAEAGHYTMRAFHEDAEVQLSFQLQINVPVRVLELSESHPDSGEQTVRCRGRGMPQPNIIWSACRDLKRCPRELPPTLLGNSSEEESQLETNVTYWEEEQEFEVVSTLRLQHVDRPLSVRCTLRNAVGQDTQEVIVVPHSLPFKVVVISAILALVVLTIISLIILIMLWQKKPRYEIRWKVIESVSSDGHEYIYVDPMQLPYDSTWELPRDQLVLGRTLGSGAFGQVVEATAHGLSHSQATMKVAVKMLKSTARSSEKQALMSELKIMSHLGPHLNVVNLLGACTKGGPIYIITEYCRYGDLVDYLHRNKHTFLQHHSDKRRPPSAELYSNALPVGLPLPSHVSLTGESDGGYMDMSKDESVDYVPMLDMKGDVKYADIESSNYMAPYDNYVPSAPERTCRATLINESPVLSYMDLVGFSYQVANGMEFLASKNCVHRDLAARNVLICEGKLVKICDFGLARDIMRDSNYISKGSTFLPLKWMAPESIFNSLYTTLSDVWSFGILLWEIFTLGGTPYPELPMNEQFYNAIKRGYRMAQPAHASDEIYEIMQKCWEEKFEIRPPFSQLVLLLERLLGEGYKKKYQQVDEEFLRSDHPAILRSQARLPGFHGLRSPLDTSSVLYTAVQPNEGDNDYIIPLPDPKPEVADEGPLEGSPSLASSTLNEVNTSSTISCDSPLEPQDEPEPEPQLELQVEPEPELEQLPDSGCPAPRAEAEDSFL
In short: as §1

[31] = molecular target: T30, PKCeta (Homo sapiens, UniProt P24723)
T30 construct: purchased Millipore, Inc. (KinaseProfiler service)
In short: as §1

[32] = molecular target: T31, PKCgamma (Homo sapiens, UniProt P05129)
T31 construct: purchased Millipore, Inc. (KinaseProfiler service)
In short: as §1

[33] = molecular target: T32, PTK5 (Homo sapiens, UniProt P42685)
T32 construct: purchased Millipore, Inc. (KinaseProfiler service)
In short: as §1

[34] = molecular target: T33, Rsk1 (Homo sapiens, UniProt Q15418)
T33 construct: purchased Millipore, Inc. (KinaseProfiler service)
In short: as §1

[35] = molecular target: T34, Syk (Homo sapiens, UniProt P43405)
T34 construct: purchased Millipore, Inc. (KinaseProfiler service)
In short: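 Compound tested at one concentration, 10 μM, across the complete panel. Replicates: two. ATP: near Km, kinase by kinase. Reported value: averaged percent of control.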

[36] = molecular target: T35, TAO3 (Homo sapiens, UniProt Q9H2K8)
T35 construct: purchased Millipore, Inc. (KinaseProfiler service)
In short: as §1

[37] = molecular target: T36, TNK2 (Homo sapiens, UniProt Q07912)
T36 construct: purchased Millipore, Inc. (KinaseProfiler service)
In short: as §1

[38] = molecular target: T37, TSSK2 (Homo sapiens, UniProt Q96PF2)
T37 construct: purchased Millipore, Inc. (KinaseProfiler service)
T37 sequence (Q96PF2 whole entry): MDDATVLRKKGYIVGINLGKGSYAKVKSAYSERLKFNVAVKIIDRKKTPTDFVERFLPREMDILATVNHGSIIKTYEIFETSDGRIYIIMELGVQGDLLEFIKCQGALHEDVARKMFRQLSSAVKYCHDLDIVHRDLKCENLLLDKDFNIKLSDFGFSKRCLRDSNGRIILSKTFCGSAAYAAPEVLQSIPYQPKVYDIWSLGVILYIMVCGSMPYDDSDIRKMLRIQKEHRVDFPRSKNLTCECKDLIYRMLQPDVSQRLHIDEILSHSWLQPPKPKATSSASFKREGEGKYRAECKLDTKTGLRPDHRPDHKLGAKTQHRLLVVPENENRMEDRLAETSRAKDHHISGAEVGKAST
In short: as §1

[39] = molecular target: T38, TrkB (Homo sapiens, UniProt Q16620)
T38 construct: purchased Millipore, Inc. (KinaseProfiler service)
In short: as §1

[40] = molecular target: T39, ULK3 (Homo sapiens, UniProt Q6PHR2)
T39 construct: purchased Millipore, Inc. (KinaseProfiler service)
In short: as §1

[41] = molecular target: T40, ZAP-70 (Homo sapiens, UniProt P43403)
T40 construct: purchased Millipore, Inc. (KinaseProfiler service)
T40 sequence (P43403 whole entry): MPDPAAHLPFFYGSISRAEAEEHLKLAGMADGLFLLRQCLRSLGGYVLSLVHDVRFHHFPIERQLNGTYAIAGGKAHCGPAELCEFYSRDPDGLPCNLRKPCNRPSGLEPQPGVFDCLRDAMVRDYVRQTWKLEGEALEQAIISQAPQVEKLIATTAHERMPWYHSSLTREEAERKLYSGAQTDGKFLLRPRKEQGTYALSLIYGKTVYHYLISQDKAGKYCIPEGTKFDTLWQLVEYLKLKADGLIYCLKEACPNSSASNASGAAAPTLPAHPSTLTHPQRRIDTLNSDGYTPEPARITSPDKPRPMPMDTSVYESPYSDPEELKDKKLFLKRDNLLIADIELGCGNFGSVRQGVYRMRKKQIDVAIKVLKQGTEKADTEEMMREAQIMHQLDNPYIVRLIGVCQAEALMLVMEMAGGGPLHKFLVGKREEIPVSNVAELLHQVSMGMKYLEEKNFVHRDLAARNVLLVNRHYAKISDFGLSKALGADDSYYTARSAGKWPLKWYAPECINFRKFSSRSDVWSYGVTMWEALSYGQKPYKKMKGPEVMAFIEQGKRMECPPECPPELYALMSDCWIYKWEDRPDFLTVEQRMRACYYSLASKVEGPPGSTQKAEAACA
In short: as §1

[42] = molecular target: T41, p38alpha (Homo sapiens, UniProt Q16539)
T41 construct: purchased Millipore, Inc. (KinaseProfiler service)
In short: as §1

Compound: COCCN1C[C@@H](NC(=O)Nc2sc(C(C)C)nc2-c2ccccc2)[C@H](c2ccccc2)C1 [Example 48, 1-(2-isopropyl-4-phenylthiazol-5-yl)-3-((3S,4R)-1-(2-methoxyethyl)-4-phenylpyrrolidin-3-yl)urea]
- Avg POC [1]: 148% of control
- Avg POC [2]: 97.5% of control
- Avg POC [3]: 122% of control
- Avg POC [4]: 119.5% of control
- Avg POC [5]: 101.5% of control
- Avg POC [6]: 106% of control
- Avg POC [7]: 110% of control
- Avg POC [8]: 110.5% of control
- Avg POC [9]: 109.5% of control
- Avg POC [10]: 106% of control
- Avg POC [11]: 111.5% of control
- Avg POC [12]: 111% of control
- Avg POC [13]: 107% of control
- Avg POC [14]: 106.5% of control
- Avg POC [15]: 91.5% of control
- Avg POC [16]: 63% of control
- Avg POC [17]: 103% of control
- Avg POC [18]: 170.5% of control
- Avg POC [19]: 104% of control
- Avg POC [20]: 114.5% of control
- Avg POC [21]: 102.5% of control
- Avg POC [22]: 117% of control
- Avg POC [23]: 98% of control
- Avg POC [24]: 115% of control
- Avg POC [25]: 113.5% of control
- Avg POC [26]: 126.5% of control
- Avg POC [27]: 121.5% of control
- Avg POC [28]: 94% of control
- Avg POC [29]: 104.5% of control
- Avg POC [30]: 103.5% of control
- Avg POC [31]: 93% of control
- Avg POC [32]: 93.5% of control
- Avg POC [33]: 107.5% of control
- Avg POC [34]: 121% of control
- Avg POC [35]: 86.5% of control
- Avg POC [36]: 105.5% of control
- Avg POC [37]: 99.5% of control
- Avg POC [38]: 124% of control
- Avg POC [39]: 9% of control
- Avg POC [40]: 100% of control
- Avg POC [41]: 100.5% of control
- Avg POC [42]: 108% of control
